According to paper PMC12467382, “Synthesis and Bioevaluation of Chalcones as Broad-Spectrum Antiviral Compounds Against Single-Stranded RNA Viruses” (Biomolecules, 2025):

Columns and labels:
mTOR signaling = test: Western blot of prps6 and rps6 as readouts of mTOR signaling in PANC-1 cells; type: cell-based; details: 72 h, chalcones 10 µM, rapamycin 10 nM
Protocol: PANC-1 cells were cultured in 6-well dishes and were lysed using modified radioimmunoprecipitation assay (RIPA) buffer (20 mM HEPES, pH 7.0, 150 mM NaCl, 1 mM EDTA, 1% NP-40, 1% deoxycholate, and 0.1% sodium dodecyl sulfate [SDS]) containing a complete protease inhibitor cocktail (Roche, Mannheim, Germany) and PhosSTOP phosphatase inhibitor cocktail (Roche, Mannheim, Germany). Protein concentrations were determined using the bicinchoninic acid (BCA) protein assay kit (Pierce, Rockford, IL, USA) according to manufacturer’s instructions. Cell lysates with 25 µg of protein were resolved on 12% sodium dodecyl sulfate-polyacrylamide gel electrophoresis (SDS-PAGE) gels and electro-transferred onto polyvinylidene difluoride (PVDF) membranes (Trans-Blot Turbo Transfer System, BioRad, Hercules, CA, USA). The samples were probed with rabbit monoclonal antibodies for the P-rps6 (1:1000) protein (Cell Signaling, Danvers, MA, USA) and mouse monoclonal antibodies for rps6 (1:1000) (Cell Signaling) and β-actin (1:5000) (Abcam, Waltham, MA, USA) proteins. Blots were visualized using anti-rabbit or anti-mouse horseradish peroxidase (HRP)-conjugated antibodies (Cell Signaling) and chemiluminescence reagent (Thermo Fisher Scientific, Waltham, MA, USA).
PANC-1 cells were chosen for this study as they are highly dependent on mTOR for their growth. PANC-1 cells were cultured and treated with the positive control rapamycin (10 nM) and chalcones NM5, 8a, 8o, 8s, 8v, and 8w (10 μM) for 72 h. Rapamycin and the chalcones were dissolved in 100% DMSO and dosed so that the final DMSO concentration was 0.1%. Cell lysates were collected and analyzed to determine the relative protein expression levels of rps6, prps6, and β-actin as a loading control (see Figure 12).

OC43 = test: Coronavirus OC43 NP protein expression in Hs27 cells by flow cytometry; type: cell-based, Human Coronavirus OC43; details: MOI 50, 24 hpi; for Cells expressing OC43 NP protein: 10 µM before and after infection, DMSO ~65%
Protocol: Human Coronavirus OC43 (ATCC, catalog number VR-1558) was grown in a human colorectal adenocarcinoma cell line (HCT-8; ATCC, Manassas, Virginia, catalog #CCL-244) at 33 °C as previously described. OC43 titers were determined at 33 °C via 50% Tissue Culture Infectious Dose assays (TCID50) on confluent human rhabdomyosarcoma (RD; ATCC, Manassas, Virginia, catalog # CCL-136) cells in 96-well plates as previously described. Infections were carried out in DMEM containing 10% BSA for 1 h at 33 °C. Cells were then washed with PBS, cultured in DMEM supplemented with 2% HI FBS, and incubated at 33 °C.
For cytotoxicity assays, cells were stained with propidium iodide (PI) at a dilution of 1:100. Cell viability was determined via flow cytometry using the CytoFLEX (Beckman Coulter, Brea, CA, USA). CytExpert software (Beckman Coulter, version 2.4) was used to analyze independent events. PIV5 infection was monitored using flow cytometry via the FITC channel by analyzing GFP expression of individual cells. ZIKV infection was monitored utilizing Flavivirus group antigen–antibody (D1-4G2-4-15; Novus Biologicals, Littleton, CO, USA) staining for the ZIKV envelope protein. Cells were fixed and permeabilized using eBioscience Intracellular Fixation and Permeabilization Buffer (Invitrogen, Thermo Fisher Scientific, MA, USA) according to the manufacturer’s instructions. Secondary staining was performed using an anti-Alexa Fluor 488 (AF488) antibody (Invitrogen, Thermo Fisher Scientific, MA, USA). OC43 infection was monitored utilizing a primary antibody targeted toward the OC43 nucleocapsid protein (NP, MAB9013, Sigma-Aldrich, St. Louis, MO, USA). Secondary staining was performed using an AF488 antibody. Cells were fixed and permeabilized as previously described. LACV infection was monitored utilizing an anti-LACV Gc 807.31ab antibody kindly provided by Andrew Pekosv. Secondary staining was performed using an AF488 antibody. […]
To expand these findings, we evaluated whether these top-performing chalcones inhibited the replication of other RNA viruses. […]

ZIKV = ZIKV envelope (E) protein expression in Hs27 cells by flow cytometry; type: cell-based, Zika Virus; details: MOI 5, 24 hpi; for Cells expressing ZIKV envelope (E) protein: 10 µM before and after infection, DMSO 15%
Protocol: The MR766 strain of Zika Virus (ZIKV) (ATCC-VR84, Manassas, VA, USA) was grown and titered at 37 °C using Vero cells as previously described. Infections were carried out in DMEM containing 10% BSA for 1 h. Cells were then washed with PBS and cultured in DMEM containing 10% HI FBS.
For cytotoxicity assays, cells were stained with propidium iodide (PI) at a dilution of 1:100. Cell viability was determined via flow cytometry using the CytoFLEX (Beckman Coulter, Brea, CA, USA). CytExpert software (Beckman Coulter, version 2.4) was used to analyze independent events. PIV5 infection was monitored using flow cytometry via the FITC channel by analyzing GFP expression of individual cells. ZIKV infection was monitored utilizing Flavivirus group antigen–antibody (D1-4G2-4-15; Novus Biologicals, Littleton, CO, USA) staining for the ZIKV envelope protein. Cells were fixed and permeabilized using eBioscience Intracellular Fixation and Permeabilization Buffer (Invitrogen, Thermo Fisher Scientific, MA, USA) according to the manufacturer’s instructions. Secondary staining was performed using an anti-Alexa Fluor 488 (AF488) antibody (Invitrogen, Thermo Fisher Scientific, MA, USA). OC43 infection was monitored utilizing a primary antibody targeted toward the OC43 nucleocapsid protein (NP, MAB9013, Sigma-Aldrich, St. Louis, MO, USA). Secondary staining was performed using an AF488 antibody. Cells were fixed and permeabilized as previously described. LACV infection was monitored utilizing an anti-LACV Gc 807.31ab antibody kindly provided by Andrew Pekosv. Secondary staining was performed using an AF488 antibody. Cells were fixed and permeabilized as previously described.
To expand these findings, we evaluated whether these top-performing chalcones inhibited the replication of other RNA viruses. Briefly described, Hs27 cells were left untreated, treated with DMSO as a control, or treated with the chalcones 8a, 8o, or 8p at 10 μM for 24 h. Cells were then infected with the Bunyavirus LACV, the Flavivirus ZIKV, or the Coronavirus OC43 at high MOIs, as listed in Figure 10. […]

Vero cells = test: Propidium iodide (PI) staining cytotoxicity in Vero cells by flow cytometry; type: cell-based; details: 24 h, concentration giving 10% PI+ cells
Protocol: We also extended the analysis of chalcone anti-viral effects to the widely used Vero cell line. […] The quotients of these values were determined to compare the compounds directly while accounting for both cytotoxicity and efficacy against PIV5.

PIV5-GFP = test: Western blotting for PIV5 NP and P proteins in infected Hs27 cells; type: cell-based, parainfluenza virus 5; details: 10 µM before and after infection; high MOI; lysates at 24 hpi
Description: Hs27 (human skin fibroblast) cells cultured in 6-well dishes were lysed using protein lysis buffer. Cell lysates were resolved on 12% sodium dodecyl sulfate-polyacrylamide gel electrophoresis (SDS-PAGE) gels and transferred to nitrocellulose membranes (Bio-Rad, Hercules, CA, USA). After normalizing samples via western blotting for β-actin (1:20,000 dilution, catalog number A5316, Sigma-Aldrich, St. Louis, MO, USA), samples were probed with rabbit polyclonal antibodies for the PIV5 NP (1:2000) and P proteins (1:2000). Blots were visualized using anti-mouse horseradish peroxidase (HRP)-conjugated antibodies (Sigma-Aldrich) and chemiluminescence (Thermo Fisher Scientific).
The above experiments utilized GFP expression and flow cytometry as an assay for observing the effects of chalcones on viral protein expression. To extend this analysis to bona fide viral proteins, cells were left untreated, DMSO-treated, or treated with the chalcone 8o at 10 μM for 24 h. Cells were then infected with PIV5-GFP at a high MOI and then cultured in control media or media supplemented with 8o.

[1] = system: human cytomegalovirus (HCMV); parameters: method as in PMID 23768434; details: cited from earlier work
[2] = system: human immunodeficiency virus (HIV); parameters: method as in PMID 27161874; details: cited from earlier work

Row | Compound | prps6 expression relative to DMSO control (mTOR signaling) | total rps6 protein expression relative to DMSO control (mTOR signaling) | PI MTC (Vero cells) | other results
1 | COc1ccccc1/C=C/C(=O)c1ccccc1O [Chalcone 8a] | no significant change | no significant difference |  | Effect on OC43 NP expression (OC43; 10 µM): significant inhibitory effects; Inhibition of viral gene expression, ZIKV (ZIKV; 10 µM): did not inhibit viral gene expression
2 | COc1ccc(Br)cc1/C=C/C(=O)c1c(O)cccc1OC [Chalcone 8f] |  |  | 6.8 µM | 
3 | COc1ccc(Br)cc1/C=C/C(=O)c1c(O)cccc1OCc1ccccc1 [Chalcone 8l] |  |  | 4.0 µM | 
4 | CCOc1ccc(Br)cc1/C=C/C(=O)c1c(O)cccc1OCc1ccccc1 [Chalcone 8o] | no significant change | no significant difference | 2.5 µM | Cells expressing OC43 NP protein (OC43): 1-2%; PIV5 NP and P viral protein levels (PIV5-GFP): very little viral protein; Antiviral activity against HCMV [1]: had efficacy as an antiviral agent; Antiviral activity against HIV [2]: had efficacy as an antiviral agent; Cells expressing ZIKV envelope (E) protein (ZIKV): ~ 2%
5 | CCOc1ccc(Cl)cc1/C=C/C(=O)c1c(O)cccc1OCc1ccccc1 [Chalcone 8p] |  |  | 3.2 µM | Cells expressing OC43 NP protein (OC43): 1-2%; Cells expressing ZIKV envelope (E) protein (ZIKV): ~ 2%
6 | COc1ccc(Br)cc1/C=C/C(=O)c1c(O)cccc1OCCC(C)C [Chalcone 8s, (2E)-3-(5-Bromo-2-Methoxy-Phenyl)-1-[2-Hydroxy-6-(3-Methyl-Butoxy)-Phenyl]-Propenone] | no significant change | significantly increased |  | 
7 | CCOc1ccc(Br)cc1/C=C/C(=O)c1c(O)cccc1OCc1ccc(-c2ccccc2)cc1 [Chalcone 8v, (2E)-1-[2-(Biphenyl-4-Ylmethoxy)-6-Hydroxy-Phenyl]3-(5-Bromo-2-Ethoxy-Phenyl)-Propenone] | no significant change | no significant difference |  | 
8 | COc1ccc(Br)cc1/C=C/C(=O)c1c(O)cccc1OCc1ccc(-c2ccccc2)cc1 [Chalcone 8w, (2E)-1-[2-(Biphenyl-4-Ylmethoxy)-6-Hydroxy-Phenyl]3-(5-Bromo-2-Methoxy-Phenyl)-Propenone] | no significant change | no significant difference |  | 
